Reference: patent US11945786B2, “Compounds, devices, and uses thereof” (SIGILON THERAPEUTICS, INC., priority 2016, dated 2024)

Tested on: Macrophage cell lines
Assay: In vitro macrophage adhesion assay (Example 8)
Type: cell-based
Conditions: compound conjugated to NHS-activated 96 well plate; 50000 cells per well, 37 degrees Celsius, one hour; averaged across eight wells; normalized PEG750=0, Fibronectin=100
Description: Exemplary compounds of the invention were prepared at a concentration of 0.1M in a 0.1M bicarbonate buffer (pH 8.2) containing 25% v/v DMSO. Control solutions of 0.1M PEG750-amine and 0.01% fibronectin were prepared in 0.1M bicarbonate buffer (pH 8.2).
Each small molecule amine solution (100 μL) was pipetted into eight wells of an NHS-activated 96 well plate and incubated 2 hours at room temperature. Each plate consisted of two lanes spiked with the two control solutions and ten lanes spiked with test molecule solutions. The test wells were rinsed once with 200 μL 0.1M bicarbonate buffer (pH 8.2) containing 25% v/v DMSO followed by three washes with 200 μL Hyclone™ water. The control wells were rinsed with 0.1M bicarbonate buffer (pH 8.2) followed by three 200 μL Hyclone™ water washes. Plates were dried at room temperature in a sterile hood and stored at 4-8° C. until use.
Macrophage cell lines were plated onto 96 well plates, 50000 cells per well, and incubated at 37 degrees Celsius for one hour. Plates were then placed at a 45-degree angle and washed by applying fluid shear 5 times. Non-adherent and adherent cells were then separated and treated with a Cell titer-glo kit to quantify the number of live cells. Live cells were detected using luminescence-based plate reader measurements. The resulting cell adhesion values for each small molecule amine was averaged across the eight wells and standard deviations calculated. The average cell adhesion value for each small molecule was normalized relative to the averages for the two controls on each plate: PEG750=0, Fibronectin (FN)=100. Small molecule normalized value=(SM-PEG750)/(FN-PEG750). Results are expressed as a percentage of cells adhered on the plates. % Percent adherent cells=(Luminescence of adhered cells)/(Luminescence of adhered+non-adhered cells). In this table, “A” represents a cell adhesion value of <0% to about 10%; “B” represents a cell adhesion value of 10% to about 50%; and “C” represents a cell adhesion value of 50% to 100%.

Molecule | cell adhesion value (percentage of cells adhered on the plates)
NCCOCCOCCOCCn1cc(CN2CCS(=O)(=O)CC2)nn1 [Compound 3037, 4-((1-(2-(2-(2-(2-aminoethoxy)ethoxy)ethoxy)ethyl)-1H-1,2,3-triazol-4-yl)methyl)thiomorpholine 1,1-dioxide] | A (a cell adhesion value of <0% to about 10%)
Fibronectin [reference compound] | C (a cell adhesion value of 50% to 100%)
C=CC(=O)NCc1ccc(-n2cc(COC3CCCCO3)nn2)cc1 (stereo not drawn) [Compound 3040, N-(4-(4-(((tetrahydro-2H-pyran-2-yl)oxy)methyl)-1H-1,2,3-triazol-1-yl)benzyl)acrylamide] | C (a cell adhesion value of 50% to 100%)
